The target of this assay is T1, membrane ATP synthase (Homo sapiens, UniProt P06576+P25705+P36542).
T1 construct: Measurement of the effect of OPFP1 on the production of extracellular ATP in the SH-SY5Y cell line; endogenous in cells; host or cells: SH-SY5Y human neuroblastoma cells
Description: Production of extracellular ATP in SH-SY5Y cell line. The format is cell-based. Particulars: after 5′ pre-incubation, OPFP1 mixture 10 μg/ml, piceatannol 4 μM, read-out: maximum inhibition of ATP synthesis. The protocol: FIG. 6. Production of extracellular ATP. Measurement of the effect of OPFP1 on the production of extracellular ATP in the SH-SY5Y cell line. (A) analysis of the effects on ATP production at different pre-incubation times; (B) evaluation of the effects elicited by different concentrations of the OPFP1 mixture (results are the mean of three independent experiments).
The mixture not only binds this enzyme complex but also modulates its activity. As positive control, piceatannol (3,4,3′,5′-tetrahydroxy-trans-stilbene) was used, that is a resveratrol metabolite well-known for its inhibitory activity on the production of extracellular ATP.

The structures appear in SMILES notation.

Take `Oc1cc(O)cc(/C=C/c2ccc(O)c(O)c2)c1` [piceatannol, 3,4,3′,5′-tetrahydroxy-trans-stilbene]: the inhibition at 4 µM turned out to be 97%.

These data come from patent US20110311562A1, “Glycolipid Mixture with Anti-Inflammatory Activity Obtained from Oscillatoria Planktothrix” (priority 2009, published 2011).
